Activity calls are given as the source filed them. How the calls were made is not given here.

In the first assay the test system is West Nile virus infected cells, antiviral cytopathic protection. The experiment in a line: cell protection from WNV infection – EC_3, dose response (AID 623934).
Conditions: not given
Take `O=C(CSc1nc2ccccc2c(=O)n1-c1cc(F)cc(F)c1)Nc1ccc2c(c1)CCC2`: the EC50 was 11.4 µM.
On to `O=C(CSc1nc2cccc(F)c2c(=O)n1-c1ccc(Cl)c(Cl)c1)Nc1ccc2c(c1)CCC2`, for which the EC50 is 15.4 µM.
On the same count and under the same terms, under `O=C(CSc1nc2c(F)cccc2c(=O)n1-c1ccc(Cl)c(Cl)c1)Nc1ccc2c(c1)CCC2` stands 9.43 µM.
The same measure, in the same setting: under `O=C(CSc1nc2ccccc2c(=O)n1-c1cc(Cl)c(F)cn1)Nc1ccc2c(c1)CCC2` stands 24.4 µM.
On to `O=C(CSc1nc2ccccc2c(=O)n1-c1cc(F)c(F)cn1)Nc1ccc2c(c1)CCC2`, for which the EC50 was 18.5 µM.
Still for that read-out and setting: under `Cc1ccc(-n2c(SCC(=O)Nc3ccc4c(c3)CCC4)nc3ccccc3c2=O)cc1Br` stands 8.28 µM.
On the same count and under the same terms, under `O=C(CSc1nc2ccccc2c(=O)n1-c1c(Cl)cccc1Cl)Nc1ccc2c(c1)CCC2` stands 13 µM; under `O=C(CSc1nc2c(F)cccc2c(=O)n1-c1cc(Cl)cc(Cl)c1)Nc1ccc2c(c1)CCC2`, 11.4 µM.
Same read-out and setting: the figure for `Cc1cc(-n2c(SCC(=O)Nc3ccc4c(c3)CCC4)nc3ccccc3c2=O)ccc1Cl` is 4.22 µM; for `O=C(CSc1nc2c(F)cccc2c(=O)n1-c1ccccc1)Nc1ccc2c(c1)CCC2` it is 17.3 µM; for `Cc1cc(-n2c(SCC(=O)Nc3ccc4c(c3)CCC4)nc3ccccc3c2=O)ccc1F` it is 6.66 µM.
On to `O=C(CSc1nc2ccccc2c(=O)n1-c1ccccc1)Nc1ccc2c(c1)CCC2`, for which the EC50 was 26.8 µM.
Turning to `O=C(CSc1nc2ccccc2c(=O)n1-c1ccc(Cl)c(Br)c1)Nc1ccc2c(c1)CCC2`, the EC50 was 13.7 µM.

Tested on in the next assay: not listed separately
Described as above. As to conditions: West Nile virus infected cells, antiviral cytopathic protection; at 50 µM (top of the series).
In the case of `Cc1cc(-n2c(SCC(=O)c3nc(-c4ccccc4)cs3)nc3ccccc3c2=O)ccc1Cl`, the inhibition is 3.94% (inactive).

Staying with this assay, now noted: West Nile virus infected cells, antiviral cytopathic protection; at 100 µM (top of the series).
For `Cc1cc(-n2c(SCC(=O)Nc3nc(-c4ccccc4)cs3)nc3ccccc3c2=O)ccc1Cl`, the inhibition is 5.12% (inactive).
Same read-out and setting: the figure for `N#Cc1ccc(-n2c(SCC(=O)Nc3ccc4c(c3)CCC4)nc3ccccc3c2=O)cc1F` is 2.03% (inactive); for `O=C(CSc1nc2ccccc2c(=O)n1-c1cc(F)cc(F)c1)Nc1nc(-c2ccccc2)cs1` it is 3.67% (inactive).
On to `O=C(CSc1nc2cccc(F)c2c(=O)n1-c1cc(Br)c(F)cn1)Nc1ccc2c(c1)CCC2`, for which the inhibition is 3.79% (inactive).
Turning to `N#Cc1ccc(-n2c(SCC(=O)Nc3ccc4c(c3)CCC4)nc3ccccc3c2=O)cc1`, the inhibition was 8.15% (inactive).
Still for that read-out and setting: the figure for `N#Cc1ccc(-n2c(SCC(=O)Nc3nc(-c4ccccc4)cs3)nc3ccccc3c2=O)cc1F` is 5.78% (inactive); for `O=C(CSc1nc2c(Cl)cccc2c(=O)n1-c1cc(Cl)cc(Cl)c1)Nc1ccc2c(c1)CCC2` it is 5.62% (inactive); for `O=C(CSc1nc2cccc(F)c2c(=O)n1-c1ccc(Cl)c(Cl)c1)Nc1ccc2c(c1)CCC2` it is 3.14% (inactive).
As for `O=C(CSc1nc2c(F)cccc2c(=O)n1-c1cc(Cl)cc(Cl)c1)Nc1nc(-c2ccccc2)cs1`, the inhibition was 3.92% (inactive).
On the same count and under the same terms, under `O=C(CSc1nc2ccccc2c(=O)n1-c1ccc(Cl)c(F)c1)Nc1ccc2c(c1)CCC2` stands 7.41% (inactive).
Turning to `O=C(CSc1nc2ccccc2c(=O)n1-c1ccccn1)Nc1ccc2c(c1)CCC2`, the inhibition is 2.47% (inactive).
Same read-out and setting: under `O=C(CSc1nc2ccccc2c(=O)n1-c1ccc(Cl)c(Cl)c1)Nc1nc(-c2ccccc2)cs1` stands 4.05% (inactive); under `O=C(CSc1nc2ccccc2c(=O)n1-c1c(Cl)cccc1Cl)c1nc(-c2ccccc2)cs1`, 3.02% (inactive); under `O=C(CSc1nc2c(Cl)cccc2c(=O)n1-c1cc(Cl)cc(Cl)c1)Nc1nc(-c2ccccc2)cs1`, 5.19% (inactive).
`O=C(CSc1nc2ccccc2c(=O)n1-c1ccc(Cl)c(Br)c1)Nc1nc(-c2ccccc2)cs1`: the inhibition is 4.48% (inactive).
Still for that read-out and setting: under `O=C(CSc1nc2ccccc2c(=O)n1-c1c(Cl)cccc1Cl)Nc1nc(-c2ccccc2)cs1` stands 1.54% (inactive); under `Cc1cc(-n2c(SCC(=O)c3nc(-c4ccccc4)cs3)nc3ccccc3c2=O)ccc1F`, 3.75% (inactive); under `O=C(CSc1nc2ccccc2c(=O)n1-c1cc(F)cc(F)c1)c1nc(-c2ccccc2)cs1`, 6.41% (inactive).
Still for that read-out and setting: under `N#Cc1ccc(-n2c(SCC(=O)Nc3nc(-c4ccccc4)cs3)nc3ccccc3c2=O)cc1` stands 6.44% (inactive).
Still for that read-out and setting: the figure for `O=C(CSc1nc2ccccc2c(=O)n1-c1ccccn1)Nc1nc(-c2ccccc2)cs1` is 3.87% (inactive); for `O=C(CSc1nc2ccccc2c(=O)n1-c1ccc(Cl)c(F)c1)c1nc(-c2ccccc2)cs1` it is 4.16% (inactive).
Turning to `O=C(CSc1nc2cccc(F)c2c(=O)n1-c1ccc(Cl)c(Cl)c1)Nc1nc(-c2ccccc2)cs1`, the inhibition is 3.12% (inactive).
Consider `O=C(CSc1nc2ccccc2c(=O)n1-c1ccc(Cl)c(Cl)c1)Nc1ccc2c(c1)CCC2`, for which the inhibition is 24.8% (inactive).
For the molecule `Cc1ccc(-n2c(SCC(=O)c3nc(-c4ccccc4)cs3)nc3ccccc3c2=O)cc1Br`, the inhibition is 4.12% (inactive).
With `Cc1cc(-n2c(SCC(=O)Nc3nc(-c4ccccc4)cs3)nc3ccccc3c2=O)ccc1F`, the inhibition is 4.72% (inactive).
`O=C(CSc1nc2c(F)cccc2c(=O)n1-c1ccc(Cl)c(Cl)c1)Nc1nc(-c2ccccc2)cs1`: the inhibition was 5.8% (inactive).
Turning to `O=C(CSc1nc2c(F)cccc2c(=O)n1-c1ccccc1)Nc1nc(-c2ccccc2)cs1`, the inhibition is 3.49% (inactive).
Regarding `N#Cc1ccc(-n2c(SCC(=O)c3nc(-c4ccccc4)cs3)nc3ccccc3c2=O)cc1`, the inhibition was 3.25% (inactive).

(Values after PubChem BioAssay AID623934 (Southern Research Specialized Biocontainment Screening …, 2012).)
